According to patent US20050282781A1, “Compositions of stable bioactive metabolites of docosahexaenoic (DHA) and eicosapentaenoic (EPA) acids” (priority 2004, published 2005):
Marks after values point to notes of the source that are not given here.

What was measured:
[1] = system: pylorus ligated albino rats; test: Anti-ulcerogenic effect in pylorus ligated rats (ulcer index, gastric juice); assay type: in vivo
From the text: Mixture of DBPs (1:1, 1 and 2, Scheme-II), on'the other hand, increased the contents of individual and the total carbohydrates and also the total carbohydrate/protein ratio in the gastric juice. The ratio of the total carbohydrate/protein was taken as the index of the mucin activity.
Another essential criterion of determining the status of mucosal resistance/barrier is the state of mucus secretion. DBPs increase not only the mucosal cellular mucus, but also secrete more dissolved mucus in the gastric juice as evidenced by their effects on gastric juice carbohydrates and on the increased carbohydrate/protein ratio.

active learning in rats = test: Active learning (learning acquisition), number of trials to reach criterion; assay type: in vivo, rat; conditions: p.o. once daily 45 min before trial for 4 days, mean ± SEM
From the text: In the learning acquisition paradigm, in the control group, the number of shocked and unshocked trials required to reach the criterion of 10 correct conditional responses, were 14.33 and 43.70, respectively.

[2] = system: CS-induced gastric ulceration in albino rats; test: Chronic stress (foot-shock) induced gastric ulceration; assay type: in vivo
Method: A comparative study of DBPs (1, 2, Scheme-II; 1:1 mixture), EPA and DHA was carried out to determine their relative adaptogenic potency against chronic stress in albino rats. The study is also relevant in view of the projected links of EPA and DHA to mental development in children which is severely retarded by chronic stress.
Rats were randomly assigned to control or stress groups. Those assigned to the stress groups were subjected to 1 hour foot-shock, through a grid floor, every day for 14 days. The duration of each shock (2 mA) and the intervals between the shocks were randomly programmed between 3-5 seconds and 10-110 seconds, respectively, to make the stress unpredictable.
EPA (Aldrich), DHA (Sigma) and DBPs were separately suspended/dissolved in 0.3% carboxymethylcellulose (CMC) in distilled water and administered orally (p.o.) for 14 days, starting on day 1, 60 min. prior to electro-shock. Control animals received only the vehicle in either unstressed or the stressed rats for the same period in a volume of 2 ml/Kg, p.o. Estimations were conducted on day 14, one hour after the last stress procedure and two hours after the last test compound or vehicle was administered.
The three test compounds had, albeit in different extent, dose-related anti-ulcerogenic effect. The efficacy was in the order: DBPs>DHA>EPA (Table 2).

[3] = system: CS-induced alteration of adrenal gland ascorbic acid and corticosterone concentrations and plasma corticosterone level; test: Chronic stress induced alteration of adrenal ascorbic acid, adrenal corticosterone and plasma corticosterone; assay type: in vivo, albino rats
Method: The study is also relevant in view of the projected links of EPA and DHA to mental development in children which is severely retarded by chronic stress. Rats were randomly assigned to control or stress groups. Those assigned to the stress groups were subjected to 1 hour foot-shock, through a grid floor, every day for 14 days. […] Control animals received only the vehicle in either unstressed or the stressed rats for the same period in a volume of 2 ml/Kg, p.o. […] CS caused marked depletion of adrenal gland ascorbic acid and corticosterone concentrations with concomitant increase in plasma corticosterone levels. […] They had no per se effect on the indices of stress investigated (Table 3).

open-field test in rats = test: Open-field test (anxiogenic test model); assay type: in vivo, rat; set-up: Immobility: unit not given here
Method: This was determined according to a previously described method (Bhattacharya et al. 1998).
MDMA (5 and 10 mg/Kg, i.p.) produced a dose-related decrease in the number of squares crossed and rears, with concomitant immobility and increased defecation; these effects are qualitatively similar to those induced by yohimbine (2 mg/Kg, i.p. in 0.9% saline as the vehicle). DBPs (1 and 2, 1:1 mixture 10 mg/Kg, p.o. day-1, for 7 days) were administered prior to MDMA or yohimbine administration, on the 7th day, 1 hour after the last DBPs administration (p.o.). Similar anti-anxiogenic effects were observed on pretreatment of MDMA, followed by DBPs.

[4] = L-DOPA-sparing by singlet oxygen quenching (Rose Bengal plates); assay type: biochemical; conditions: for Percent inhibition of L-DOPA oxidation (mean ± SEM): 30 min exposure to 1O2, Pi buffer pH 7.2
From the text: A comparative study of the antioxidant defence provided by the three compounds, DBPs, EPA and DHA, was made. The reason for selection of this test (antioxidant-profile) is, that, agents that can regulate systemic production and interactions of reactive oxygen species, like singlet oxygen, superoxide radical and hydroxyl radical, can provide surveillance umbrella to living organisms against ‘oxidative stress’.
The singlet oxygen was generated on Rose Bengal-coated glass plates by illuminating with a 150-W spot-light at a distance of 30 cm, through water to filter infra-red light (Ghosal, S. and Bhattacharya, S. K. (1996). Antioxidant defence by shilajit, Indian J. Chem., 35B, 127-132).

mice = test: Forced swimming immobility (behavioral despair), anti-stress; assay type: in vivo; conditions: in these doses (50 mg/Kg p.o. × 4 days); statistically insignificant
Method: Rodents when forced to swim in a restricted place, from which they cannot escape, become immobile after an initial period of vigorous activity. The observed immobility signified behavioral despair, resembling a state of mental depression. Behavioral depression is a common consequence of stress. The significant anti-stress effects of DBPs (1 and 2, Scheme-II), was assessed by the considerable reduction in the period of immobility in the test compound treated mice.

[5] = system: increased 5-HT release activity in MDMA-treated rats; test: MDMA-withdrawal increased 5-HT release; assay type: in vivo, rat; conditions: post-treatment in MDMA-treated rats
From the text: EPA or DHA would not be truly effective for this purpose. There is evidence that presynaptic serotonergic, but not dopaminergic, mechanisms are involved in the enactogen-like discriminative stimulus properties of MDMA. MDMA increases the number of rat brain 5-hydroxytryptamine 5-HT1A receptors and induces increased release of 5-HT from presynaptic terminals. The MDMA-withdrawal syndrome includes this increased 5-HT release activity in rats.

[6] = Oral EPA or DHA to albino rats, blood levels of DBPs and benzoic acid by HPLC and GC-MS; assay type: in vivo
Method: Oral administration of EPA to albino rats and tracking the blood level of DBPs by HPLC were conducted. […] Cells and plasma were separated by centrifugation and extracted separately with methanol before (BH) and after acidic (HCl) hydrolysis (AH). These extracts were subjected to HPLC, when DBPs (3-hydroxy- and 3,8-dihydroxydibenzo-α-pyrones) so formed were tracked and estimated. FIGS. 2A and 2B show the turnover of EPA into 3,8-dihydroxydibenzo-α-pyrone.
Blood samples (2.5 ml) were collected from albino rats (200-220 grams, b.w.) by retro-orbital puncture, in heparinized tubes and centrifuged (3000 rpm) for 5 min. The supernatant (plasma, 0.4 ml) was collected and extracted with methanol (5 ml×3), at 60° C. by sonication for 10 min each. The combined methanolic extract was filtered and evaporated in vacuo. The residue so obtained was subjected to HPLC and GC-MS (as TMS derivatives) analyses. The presence of both 3-hydroxy-(str. 1, Scheme-II) and 3,8-dihydroxy-dibenzo-α-pyrone (str. 2, Scheme-II) was detected. Thus, the two DBPs are the normal metabolites of the albino rats. Their normal concentrations (control value) in the experimental rat blood were estimated at 0.170±0.052 μg/ml (str. 1, Scheme-II) and 0.100±0.023 μg/ml (str. 2, Scheme-II).
In the EPA treatment experiment to the above animals, EPA (25 mg, in propylene glycol, 0.5 ml) per rat was fed through the oral route. […]

[7] = 5 mg/Kg p.o. for 14 days + chronic stress
[8] = 10 mg/Kg p.o. for 14 days + chronic stress
[9] = 5 mg/Kg p.o., unstressed rats (per se effect)
[10] = 10 mg/Kg p.o., unstressed rats (per se effect)
[11] = 10 mg/Kg p.o. for 7 days, prior to MDMA or yohimbine administration

SMILES	Number of trials to reach criterion, Shocked trials (active learning in rats; dose 2.5 mg/ml)	Number of trials to reach criterion, Unshocked trials (active learning in rats; dose 2.5 mg/ml)	Number of trials to reach criterion, Shocked trials (active learning in rats; dose 5.0 mg/ml)	No. of ulcers [2, 7]	Severity of ulcers [2, 7]	Ulcer incidence (%) [2, 7]	No. of ulcers [2, 8]	Severity of ulcers [2, 8]	Ulcer incidence (%) [2, 8]	Adrenal ascorbic acid [3, 7]	Adrenal corticosterone [3, 7]	Plasma corticosterone [3, 7]	Adrenal ascorbic acid [3, 9]	Adrenal corticosterone [3, 9]	Plasma corticosterone [3, 9]	Adrenal ascorbic acid [3, 8]	Adrenal corticosterone [3, 8]	Plasma corticosterone [3, 8]	Adrenal ascorbic acid [3, 10]	Adrenal corticosterone [3, 10]	also measured
CC(=O)Oc1ccccc1C(=O)O [ASP, aspirin]	–	–	–	–	–	–	–	–	–	–	–	–	–	–	–	–	–	–	–	–	protein content in the gastric juice ([1]; compared to the vehicle control): significant increase; contents of DNA and protein in the gastric juice ([1]; pylorus ligated rats): appreciable increase; total carbohydrate/protein ratio in the gastric juice (index of mucin activity) ([1]; pylorus ligated rats): considerable decrease
CC/C=C\C/C=C\C/C=C\C/C=C\C/C=C\C/C=C\CCC(=O)O [DHA, docosahexaenoic acid]	12.55 ± 2.03	39.33 ± 2.04	12.78 ± 1.83	15.8 ± 4.0	28.1 ± 5.9	70%	14.7 ± 3.8	25.0 ± 5.2	60%	140.7 ± 20.5 μg/100 mg	2.5 ± 1.0 μg/100 mg	22.5 ± 3.5^b μg/dL	309.4 ± 30.4 μg/100 mg	4.8 ± 1.2 μg/100 mg	15.0 ± 0.9 µg/dL	148.0 ± 16.7^b μg/100 mg	2.8 ± 1.0^b μg/100 mg	17.9 ± 0.9^b μg/dL	308.9 ± 27.4 μg/100 mg	5.5 ± 1.0 μg/100 mg	Plasma corticosterone [3, 10]: 14.7 ± 1.0 µg/dL; Faecal pellets (open-field test in rats; [11]): 5.7 ± 4.1; Immobility (open-field test in rats; [11]): 59.9 ± 7.2; Rears (open-field test in rats; [11]): 14.0 ± 5.5; Squares crossed (open-field test in rats; [11]): 122.1 ± 5.5
CC/C=C\C/C=C\C/C=C\C/C=C\C/C=C\CCCC(=O)O [EPA, cis-5,8,11,14,17-Eicosapentaenoic acid]	13.82 ± 1.04	40.11 ± 1.88	12.11 ± 2.01	16.5 ± 3.4	28.3 ± 7.7	70%	14.3 ± 4.4	26.4 ± 6.2	60%	138.5 ± 18.2 μg/100 mg	3.0 ± 1.4 μg/100 mg	17.9 ± 0.9^b μg/dL	308.8 ± 28.7 μg/100 mg	5.7 ± 1.4 μg/100 mg	15.0 ± 1.6 µg/dL	144.2 ± 14.7^b μg/100 mg	2.9 ± 0.7^b μg/100 mg	18.3 ± 1.8^b μg/dL	310.5 ± 26.0 μg/100 mg	5.2 ± 0.8 μg/100 mg	Number of trials to reach criterion, Unshocked trials (active learning in rats; dose 5.0 mg/ml): 38.14 ± 1.92; Plasma corticosterone [3, 10]: 15.5 ± 1.1 µg/dL; antioxidant effect (1O2 quenching) ([4]; 0.1-0.4 mM): only weak antioxidant effect; Percent inhibition of L-DOPA oxidation (mean ± SEM) ([4]; L-DOPA:test compound 1:0.1 mM): 7.7 ± 1.3%; Percent inhibition of L-DOPA oxidation (mean ± SEM) ([4]; L-DOPA:test compound 1:0.4 mM): 11.3 ± 3.2%; Faecal pellets (open-field test in rats; [11]): 6.8 ± 3.0; Immobility (open-field test in rats; [11]): 70.1 ± 5.3; Rears (open-field test in rats; [11]): 12.2 ± 4.8; Squares crossed (open-field test in rats; [11]): 116.5 ± 9.9; reversal of the anxiety-inducing potential of MDMA (open-field test in rats; Table 5 model): only weak reversal effect; anti-ulcerogenic effect ([1]; 10 mg/ml): only weak anti-ulcerogenic effects; anti-stress response (mice): very weak anti-stress response; prevention of MDMA-withdrawal increased 5-HT release [5]: not; blood level of 3,8-(OH)2-DBP (2) versus control ([6]; after 24 h of EPA treatment): higher than that of the control; blood level of 3,8-(OH)2-DBP (2) versus control ([6]; after 72 h of EPA treatment): came down to control level
CNC(C)Cc1ccc2c(c1)OCO2 (stereo not drawn) [MDMA, Methylenedioxymethylamphetamine]	–	–	–	–	–	–	–	–	–	–	–	–	–	–	–	–	–	–	–	–	Faecal pellets (open-field test in rats; 5 mg/Kg, i.p.): 6.7 ± 0.5; Immobility (open-field test in rats; 5 mg/Kg, i.p.): 69.3 ± 6.1; Rears (open-field test in rats; 5 mg/Kg, i.p.): 14.3 ± 4.2; Squares crossed (open-field test in rats; 5 mg/Kg, i.p.): 111.2 ± 8.0; Faecal pellets (open-field test in rats; 10 mg/Kg, i.p.): 8.0 ± 2.2; Immobility (open-field test in rats; 10 mg/Kg, i.p.): 80.1 ± 7.0; Rears (open-field test in rats; 10 mg/Kg, i.p.): 11.2 ± 3.9; Squares crossed (open-field test in rats; 10 mg/Kg, i.p.): 74.7 ± 5.5
COC(=O)[C@@H]1[C@H]2C[C@H]3c4[nH]c5ccccc5c4CCN3C[C@@H]2CC[C@@H]1O [Yohimbine, yohimbine]	–	–	–	–	–	–	–	–	–	–	–	–	–	–	–	–	–	–	–	–	Faecal pellets (open-field test in rats; 2 mg/Kg, i.p. in 0.9% saline): 7.5 ± 1.2; Immobility (open-field test in rats; 2 mg/Kg, i.p. in 0.9% saline): 70.2 ± 4.9; Rears (open-field test in rats; 2 mg/Kg, i.p. in 0.9% saline): 12.8 ± 4.4; Squares crossed (open-field test in rats; 2 mg/Kg, i.p. in 0.9% saline): 90.8 ± 7.4
